Data on nine compounds can be found in ChEMBL document CHEMBL5465560, “Selectivity Literature for EUbOPEN Chemogenomic Library” (2024).

The target of assay [1] is Rho-associated protein kinase 1 (Homo sapiens) (UniProt Q13464). Particulars: at 10 µM.
Assay [2] deals with T1, Serine/threonine-protein kinase ULK3 (Homo sapiens) (UniProt Q6PHR2).
T1 sequence (whole entry): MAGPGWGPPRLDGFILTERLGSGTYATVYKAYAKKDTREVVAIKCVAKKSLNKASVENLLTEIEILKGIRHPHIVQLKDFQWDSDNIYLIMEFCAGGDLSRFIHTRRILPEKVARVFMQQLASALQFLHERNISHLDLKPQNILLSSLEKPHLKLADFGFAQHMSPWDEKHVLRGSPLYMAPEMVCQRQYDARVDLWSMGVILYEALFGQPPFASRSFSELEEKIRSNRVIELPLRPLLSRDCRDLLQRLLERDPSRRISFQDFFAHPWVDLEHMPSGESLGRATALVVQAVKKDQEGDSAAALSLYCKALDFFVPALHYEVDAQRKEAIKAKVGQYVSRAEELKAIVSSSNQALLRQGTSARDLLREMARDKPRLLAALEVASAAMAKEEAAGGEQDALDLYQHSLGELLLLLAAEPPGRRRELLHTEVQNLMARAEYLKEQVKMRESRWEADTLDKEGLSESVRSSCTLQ
Particulars: at 10 µM.

For assay [3], the target named is 5-hydroxytryptamine receptor 1B (Homo sapiens) (UniProt P28222). Kind of assay: Selectivity interaction (GPCR panel (PDSP screen)) EUB0001079a HTR1B. Conditions: at 10 µM.
5-hydroxytryptamine receptor 1B (Homo sapiens), sequence (P28222 whole entry): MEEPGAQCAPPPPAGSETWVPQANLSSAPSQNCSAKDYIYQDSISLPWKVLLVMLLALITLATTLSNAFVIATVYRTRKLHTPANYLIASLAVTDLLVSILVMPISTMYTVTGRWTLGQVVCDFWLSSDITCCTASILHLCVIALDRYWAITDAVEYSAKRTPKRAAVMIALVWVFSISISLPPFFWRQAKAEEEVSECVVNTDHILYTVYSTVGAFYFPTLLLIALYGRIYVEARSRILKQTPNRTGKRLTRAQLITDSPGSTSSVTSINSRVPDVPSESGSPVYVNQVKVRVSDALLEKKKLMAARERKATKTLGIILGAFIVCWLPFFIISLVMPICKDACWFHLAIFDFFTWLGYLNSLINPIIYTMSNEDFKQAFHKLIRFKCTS
Assay [4] concerns the target Casein kinase II subunit alpha (Homo sapiens, UniProt P68400). Nature of the assay: Selectivity interaction (KinomeScan (DiscoverX)) EUB0000655a CSNK2A1. Conditions: at 10 µM.
Assay [5] addresses Cyclin-dependent kinase 7 (Homo sapiens, UniProt P50613). Nature of the assay: Selectivity interaction (KinomeScan (DiscoverX)) EUB0001550a CDK7. Particulars: at 1 µM.
The target of assay [6] is Tyrosine-protein kinase Fyn (Homo sapiens) (UniProt P06241). Kind of assay: Selectivity interaction (KinomeScan (DiscoverX)) EUB0000695a FYN. Particulars: at 100 nM.
Tyrosine-protein kinase Fyn (Homo sapiens), sequence (P06241 2-537 limits assumed): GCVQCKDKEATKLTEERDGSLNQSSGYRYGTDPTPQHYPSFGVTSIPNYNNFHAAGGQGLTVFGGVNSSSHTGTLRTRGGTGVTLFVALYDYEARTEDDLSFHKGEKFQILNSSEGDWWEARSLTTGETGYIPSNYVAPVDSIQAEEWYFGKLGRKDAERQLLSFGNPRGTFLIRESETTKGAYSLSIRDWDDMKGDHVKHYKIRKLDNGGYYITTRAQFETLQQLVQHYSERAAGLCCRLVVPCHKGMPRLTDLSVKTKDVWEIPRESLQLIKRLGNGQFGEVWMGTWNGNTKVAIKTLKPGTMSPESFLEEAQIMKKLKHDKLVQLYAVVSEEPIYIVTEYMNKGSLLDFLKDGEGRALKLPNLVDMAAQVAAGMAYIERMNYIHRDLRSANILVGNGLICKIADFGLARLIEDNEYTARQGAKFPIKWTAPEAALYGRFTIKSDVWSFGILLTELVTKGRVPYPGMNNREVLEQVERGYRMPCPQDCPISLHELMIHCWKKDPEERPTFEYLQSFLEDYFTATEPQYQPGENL
Assay [7] addresses Protein arginine N-methyltransferase 8 (Homo sapiens, UniProt Q9NR22). Conditions: at 10 µM.
Assay [8] has as its target Tyrosine-protein kinase Fer (Homo sapiens) (UniProt P16591). Nature of the assay: Selectivity interaction (SelectScreen profiling (Invitrogen)) EUB0000607a FER. Particulars: at 2 µM.
In assay [9] the target is Ribosomal protein S6 kinase alpha-1 (Homo sapiens, UniProt Q15418). Kind of assay: Selectivity interaction (ActivX KiNativ screen (kinase selectivity in THP-1 cell lysates)) EUB0000639a RPS6KA1. Particulars: lysate, at 0.01 µM. The class given is subcellular.
Ribosomal protein S6 kinase alpha-1, sequence (Q15418 whole entry): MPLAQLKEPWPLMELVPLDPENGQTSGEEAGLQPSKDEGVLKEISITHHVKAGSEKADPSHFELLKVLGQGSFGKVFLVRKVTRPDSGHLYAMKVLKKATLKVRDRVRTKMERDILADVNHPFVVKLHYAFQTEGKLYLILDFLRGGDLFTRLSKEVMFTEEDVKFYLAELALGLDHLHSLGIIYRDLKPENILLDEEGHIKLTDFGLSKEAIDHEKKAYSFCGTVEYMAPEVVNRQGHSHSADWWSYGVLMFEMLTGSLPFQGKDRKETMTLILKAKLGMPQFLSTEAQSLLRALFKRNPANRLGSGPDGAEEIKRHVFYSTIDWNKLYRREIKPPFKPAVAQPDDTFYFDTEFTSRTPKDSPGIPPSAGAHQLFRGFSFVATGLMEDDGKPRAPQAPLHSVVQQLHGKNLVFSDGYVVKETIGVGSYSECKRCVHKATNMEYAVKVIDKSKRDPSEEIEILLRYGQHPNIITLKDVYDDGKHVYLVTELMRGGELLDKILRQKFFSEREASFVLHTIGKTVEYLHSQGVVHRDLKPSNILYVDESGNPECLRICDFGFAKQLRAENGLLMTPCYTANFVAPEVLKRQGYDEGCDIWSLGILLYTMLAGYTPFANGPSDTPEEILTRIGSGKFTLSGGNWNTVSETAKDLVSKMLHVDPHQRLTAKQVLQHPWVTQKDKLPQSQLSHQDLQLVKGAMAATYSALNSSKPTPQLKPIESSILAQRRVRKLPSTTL
Assay [10] concerns the target Cyclin-dependent kinase 18 (Homo sapiens) (UniProt Q07002). Kind of assay: Selectivity interaction (ActivX KiNativ screen (kinase selectivity in THP-1 cell lysates)) EUB0000639a CDK18. The class given is subcellular. Particulars: lysate, at 5 µM.
Assay [11] has as its target Serine/threonine-protein kinase PLK3 (Homo sapiens, UniProt Q9H4B4). Kind of assay: Selectivity interaction (KinomeScan (DiscoverX)) EUB0000229b PLK3. Conditions: at 10 µM.
Assay [12] deals with T2, Mitogen-activated protein kinase kinase kinase 13 (Homo sapiens) (UniProt O43283).
T2 sequence (whole entry): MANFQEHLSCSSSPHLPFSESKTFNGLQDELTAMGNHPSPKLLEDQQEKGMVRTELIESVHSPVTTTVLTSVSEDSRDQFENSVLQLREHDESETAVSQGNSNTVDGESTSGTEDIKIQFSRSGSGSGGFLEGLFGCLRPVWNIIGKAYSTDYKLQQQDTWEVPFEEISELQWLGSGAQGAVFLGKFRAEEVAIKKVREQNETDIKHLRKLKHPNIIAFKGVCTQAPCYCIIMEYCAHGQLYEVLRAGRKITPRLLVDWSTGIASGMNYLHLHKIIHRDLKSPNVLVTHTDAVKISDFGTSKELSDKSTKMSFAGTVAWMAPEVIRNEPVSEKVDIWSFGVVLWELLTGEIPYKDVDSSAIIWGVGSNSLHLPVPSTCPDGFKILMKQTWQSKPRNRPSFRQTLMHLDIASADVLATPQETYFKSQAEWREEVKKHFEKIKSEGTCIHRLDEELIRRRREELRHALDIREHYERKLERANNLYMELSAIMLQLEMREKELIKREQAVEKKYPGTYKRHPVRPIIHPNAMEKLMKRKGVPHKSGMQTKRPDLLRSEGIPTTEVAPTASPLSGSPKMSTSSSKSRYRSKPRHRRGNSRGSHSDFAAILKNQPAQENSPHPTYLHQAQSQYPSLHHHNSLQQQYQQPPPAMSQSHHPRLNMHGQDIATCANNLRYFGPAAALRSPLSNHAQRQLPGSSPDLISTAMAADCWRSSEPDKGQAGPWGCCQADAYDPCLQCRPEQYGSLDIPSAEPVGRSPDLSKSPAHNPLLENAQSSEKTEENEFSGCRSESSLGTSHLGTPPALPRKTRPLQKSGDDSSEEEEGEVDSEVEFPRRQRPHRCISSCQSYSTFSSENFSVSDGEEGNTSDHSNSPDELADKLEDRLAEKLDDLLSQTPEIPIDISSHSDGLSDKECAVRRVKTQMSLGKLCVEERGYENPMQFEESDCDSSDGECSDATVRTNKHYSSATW
Nature of the assay: Selectivity interaction (KinomeScan (DiscoverX)) EUB0000229b MAP3K13. Conditions: at 10 µM.

SMILES strings stand for the structures.

Serine/threonine-protein kinase PLK3, sequence (Q9H4B4 whole entry, looked up): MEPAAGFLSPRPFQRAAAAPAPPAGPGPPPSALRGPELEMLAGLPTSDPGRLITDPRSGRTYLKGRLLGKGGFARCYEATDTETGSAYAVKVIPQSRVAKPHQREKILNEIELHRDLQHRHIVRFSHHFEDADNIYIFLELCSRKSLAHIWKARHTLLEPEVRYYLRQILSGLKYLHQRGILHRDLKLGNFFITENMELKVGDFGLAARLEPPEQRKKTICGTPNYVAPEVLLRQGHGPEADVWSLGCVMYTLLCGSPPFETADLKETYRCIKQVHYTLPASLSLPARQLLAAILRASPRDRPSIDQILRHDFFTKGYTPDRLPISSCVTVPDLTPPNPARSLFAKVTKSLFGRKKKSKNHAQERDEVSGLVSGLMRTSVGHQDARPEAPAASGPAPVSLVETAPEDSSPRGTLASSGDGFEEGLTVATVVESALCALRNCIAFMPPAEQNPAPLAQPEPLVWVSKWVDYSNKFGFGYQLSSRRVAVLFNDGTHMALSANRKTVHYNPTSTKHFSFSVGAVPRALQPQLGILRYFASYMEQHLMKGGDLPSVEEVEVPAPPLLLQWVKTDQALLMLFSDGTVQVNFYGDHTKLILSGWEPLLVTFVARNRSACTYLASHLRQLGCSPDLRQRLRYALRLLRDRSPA
Casein kinase II subunit alpha, sequence (P68400 whole entry, looked up): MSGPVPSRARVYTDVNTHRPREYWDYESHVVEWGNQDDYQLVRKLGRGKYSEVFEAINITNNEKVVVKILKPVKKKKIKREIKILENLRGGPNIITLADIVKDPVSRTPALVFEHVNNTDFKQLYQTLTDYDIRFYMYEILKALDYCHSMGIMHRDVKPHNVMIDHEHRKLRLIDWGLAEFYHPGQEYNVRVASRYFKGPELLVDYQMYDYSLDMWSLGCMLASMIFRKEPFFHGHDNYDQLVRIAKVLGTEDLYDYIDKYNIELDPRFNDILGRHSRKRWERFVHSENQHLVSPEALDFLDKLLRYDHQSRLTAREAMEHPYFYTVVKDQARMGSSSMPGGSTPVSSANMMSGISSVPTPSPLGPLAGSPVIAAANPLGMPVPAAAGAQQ
Cyclin-dependent kinase 18 (Homo sapiens), sequence (Q07002 whole entry): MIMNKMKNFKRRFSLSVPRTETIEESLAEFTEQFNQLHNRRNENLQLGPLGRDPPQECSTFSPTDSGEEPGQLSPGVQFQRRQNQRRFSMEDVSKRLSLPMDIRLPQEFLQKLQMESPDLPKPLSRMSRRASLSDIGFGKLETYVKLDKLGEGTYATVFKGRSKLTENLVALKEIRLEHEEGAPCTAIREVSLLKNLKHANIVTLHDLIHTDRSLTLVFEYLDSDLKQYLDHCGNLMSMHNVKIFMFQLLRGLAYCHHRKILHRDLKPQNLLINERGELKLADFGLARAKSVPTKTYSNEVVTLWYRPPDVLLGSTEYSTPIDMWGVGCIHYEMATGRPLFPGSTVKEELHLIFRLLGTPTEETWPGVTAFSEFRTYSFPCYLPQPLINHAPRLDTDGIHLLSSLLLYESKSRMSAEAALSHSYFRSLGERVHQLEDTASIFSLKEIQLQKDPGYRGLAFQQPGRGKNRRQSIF
Cyclin-dependent kinase 7, sequence (P50613 whole entry): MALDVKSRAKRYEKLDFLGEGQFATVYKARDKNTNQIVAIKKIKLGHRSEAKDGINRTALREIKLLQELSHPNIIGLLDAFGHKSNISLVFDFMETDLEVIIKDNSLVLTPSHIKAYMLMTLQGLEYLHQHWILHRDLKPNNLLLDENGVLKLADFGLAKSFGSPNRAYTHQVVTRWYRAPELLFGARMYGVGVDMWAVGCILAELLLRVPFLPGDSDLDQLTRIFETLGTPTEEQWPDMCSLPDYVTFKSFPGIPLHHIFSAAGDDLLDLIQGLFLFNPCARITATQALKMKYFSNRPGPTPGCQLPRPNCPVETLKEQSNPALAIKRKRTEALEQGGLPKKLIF
Tyrosine-protein kinase Fer (Homo sapiens), sequence (P16591 whole entry, looked up): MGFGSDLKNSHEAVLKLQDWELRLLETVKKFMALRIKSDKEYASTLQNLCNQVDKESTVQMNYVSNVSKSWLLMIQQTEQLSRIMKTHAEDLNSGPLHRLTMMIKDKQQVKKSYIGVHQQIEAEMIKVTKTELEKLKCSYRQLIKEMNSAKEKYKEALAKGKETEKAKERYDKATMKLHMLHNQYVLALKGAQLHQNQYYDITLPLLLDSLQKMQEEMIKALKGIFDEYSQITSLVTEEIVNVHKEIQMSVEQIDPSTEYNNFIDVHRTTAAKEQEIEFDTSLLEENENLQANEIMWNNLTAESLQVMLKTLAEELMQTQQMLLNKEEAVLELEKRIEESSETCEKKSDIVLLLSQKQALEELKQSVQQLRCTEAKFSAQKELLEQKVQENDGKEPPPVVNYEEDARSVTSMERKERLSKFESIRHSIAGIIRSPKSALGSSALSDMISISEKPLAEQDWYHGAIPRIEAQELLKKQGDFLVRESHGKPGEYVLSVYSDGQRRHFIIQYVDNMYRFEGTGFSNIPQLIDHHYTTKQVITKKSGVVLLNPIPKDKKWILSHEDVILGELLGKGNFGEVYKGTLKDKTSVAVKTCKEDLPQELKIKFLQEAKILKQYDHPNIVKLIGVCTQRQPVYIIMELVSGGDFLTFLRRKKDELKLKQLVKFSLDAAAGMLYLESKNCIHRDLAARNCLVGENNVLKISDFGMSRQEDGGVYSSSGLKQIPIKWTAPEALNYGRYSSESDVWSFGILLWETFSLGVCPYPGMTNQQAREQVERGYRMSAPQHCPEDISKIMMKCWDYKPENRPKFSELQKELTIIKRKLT
Protein arginine N-methyltransferase 8, sequence (Q9NR22 2-394 limits assumed): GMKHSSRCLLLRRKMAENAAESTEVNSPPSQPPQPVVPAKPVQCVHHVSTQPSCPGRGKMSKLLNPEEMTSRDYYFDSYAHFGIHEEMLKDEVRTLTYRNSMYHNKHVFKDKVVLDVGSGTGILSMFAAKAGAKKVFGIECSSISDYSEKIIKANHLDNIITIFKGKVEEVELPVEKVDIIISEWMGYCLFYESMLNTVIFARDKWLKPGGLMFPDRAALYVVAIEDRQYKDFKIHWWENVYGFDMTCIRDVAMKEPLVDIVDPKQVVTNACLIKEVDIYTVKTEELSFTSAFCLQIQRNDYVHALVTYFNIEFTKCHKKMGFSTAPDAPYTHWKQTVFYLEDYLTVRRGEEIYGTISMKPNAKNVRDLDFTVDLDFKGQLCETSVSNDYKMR

With `Cc1cc([C@@H](C)Nc2ccccc2C(=O)O)c2nc(N3CCOCC3)cc(=O)n2c1` [AZD-6482], the % of control was determined as 73% in assay [1] and 98% in assay [2].
As to `Nc1cnc(N2CCc3cc(S(=O)(=O)Nc4c(F)cc(Cl)cc4F)cc(N4CCCC4=O)c32)nc1` [TP-020n], the % of inhibition in assay [3] is -3.82%.
`CN(C)CCOc1ccc(-c2nc(-c3ccncc3)c(-c3ccc4c(c3)CC/C4=N\O)[nH]2)cc1` showed a % of control in assay [4] of 79%.
Take `CN(C)CC#Cc1ccc2[nH]c3c(c2c1)-c1nc(N)ncc1CCC3`: the % of control in [5] came out at 20%.
`Cc1cc(F)c(C(=O)Nc2cccc(-c3nncn3C(C)C)n2)cc1-n1cnc(C2CC2)c1` showed a % of control in assay [6] of 99%.
`CNCCN1CCC(c2cc(CN(C)C(=O)c3cccc(Oc4ccccc4)c3)ccn2)CC1` registered a % activity in assay [7] of 82%.
In the case of `CNC(=O)Nc1ccc(-c2nc(N3CC4CCC(C3)O4)c3cnn(C4CCC5(CC4)OCCO5)c3n2)cc1`, the % of inhibition in assay [8] was determined as 5%.
Turning to `CC[C@@H]1[C@H](F)C(=O)N[C@@H]1COc1nccc2cc(C(N)=O)c(OC)cc12` [ZIMLOVISERTIB], the % of inhibition in [9] stood at 25.4%; in [10], 6.5%.
Consider `COc1cc(N(C)c2ccnc3ccc(C(F)(F)F)cc23)cc(OC)c1OC`, for which the values for the % binding in assay [11] and in assay [12] were 74% and 100%, respectively.
